Results from ChEMBL document CHEMBL4138100, “Novel anti-inflammatory agents targeting CXCR4: Design, synthesis, biological evaluation and preliminary pharmacokinetic study” (Eur J Med Chem, 2017).
Activity calls are given as the source filed them. The calls are words filed in the database; no cut-off is given here.

What was measured:
[1] = target: C-X-C chemokine receptor type 4 (Homo sapiens) (UniProt P61073); test: Inhibition of CXCR4-mediated chemotaxis in human MDA-MB-231 cells assessed as inhibition of CXCL12alpha-induced cell invasion at 100 nM after 22 hrs by hematoxylin/eosin dye-based matrigel assay relative to control; format: functional
[2] = target: C-X-C chemokine receptor type 4 (Homo sapiens) (UniProt P61073); test: Inhibition of biotinylated TN14003 binding to CXCR4 in human MDA-MB-231 cells assessed as reduction in fluorescence preincubated for 10 mins followed by biotinylated-TN14003 addition measured after 30 mins by streptavidin-rhodamine staining based immunofluorescence microscopic analysis; format: cell-based
Mus musculus [3] = test: Antiinflammatory activity in mouse assessed as inhibition of xylene-induced ear edema at 10 mg/kg, ip treated post 30 mins xylene treatment measured at 2 hrs post dose relative to control; format: functional
[4] = target: C-X-C chemokine receptor type 4 (Homo sapiens) (UniProt P61073); test: Potency index, ratio of AMD3100 EC to compound EC for inhibition of biotinylated TN14003 binding to CXCR4 in human MDA-MB-231 cells; format: functional, cell-based
CXCR4 [5] = test: Selectivity index, ratio of antiproliferative activity in human MCF10A cells to EC for inhibition of biotinylated TN14003 binding to CXCR4 in human MDA-MB-231 cells; format: toxicity, cell-based; details: probe biotinylated TN14003, read-out: Selectivity Index
[6] = Stability in nude mouse plasma assessed as parent compound remaining at 30 mg/kg, iv after 1 hr by HPLC analysis; format: ADME, organism-based; details: in vivo
[7] = Stability in nude mouse plasma assessed as parent compound remaining at 30 mg/kg, iv after 20 mins by HPLC analysis; format: ADME, organism-based; details: read-out: Stability
MCF-10A = test: Antiproliferative activity in human MCF10A cells at 10 uM after 24 to 72 hrs by MTT assay; format: cell-based
Mus musculus [8] = test: Antiinflammatory activity in mouse assessed as inhibition of xylene-induced increase in number of inflammatory cells in ear at 10 mg/kg, ip treated post 30 mins xylene treatment measured at 2 hrs post last dose by histological analysis; format: functional, organism-based
Mus musculus [9] = test: Antiinflammatory activity in mouse assessed as inhibition of xylene-induced ear edema volume at 10 mg/kg, ip treated post 30 mins xylene treatment measured at 2 hrs post dose by histological analysis; format: functional, organism-based
Mus musculus [10] = test: Antiinflammatory activity in mouse assessed as inhibition of xylene-induced ear thickness at 10 mg/kg, ip treated post 30 mins xylene treatment measured at 2 hrs post dose by histological analysis; format: functional, organism-based
[11] = Stability in nude mouse plasma assessed as parent compound remaining at 30 mg/kg, iv after 50 mins by HPLC analysis; format: ADME, organism-based; details: read-out: Stability
CXCR4 [12] = test: Selectivity index, ratio of antiproliferative activity in human MDA-MB-231 cells to EC for inhibition of biotinylated TN14003 binding to CXCR4 in human MDA-MB-231 cells; format: toxicity, cell-based; details: probe biotinylated TN14003, read-out: Selectivity Index
[13] = target: C-X-C chemokine receptor type 4 (Homo sapiens) (UniProt P61073); test: Inhibition of CXCR4 in human MDA-MB-231 cells assessed as reduction in CXCR4/[…] signaling-mediated Akt Ser473 phosphorylation by Western blot analysis; format: functional, cell-based
MDA-MB-231 = test: Cytotoxicity against human MDA-MB-231 cells assessed as inhibition of cell proliferation at 10 uM after 24 to 72 hrs by MTT assay; format: cell-based; details: mda-mb-231, 10 µM
[14] = Stability in nude mouse plasma assessed as parent compound remaining at 30 mg/kg, iv after 5 mins by HPLC analysis; format: ADME, organism-based; details: read-out: Stability
[15] = Half life in nude mouse plasma at 30 mg/kg, iv by HPLC analysis; format: ADME, organism-based

Sequence of C-X-C chemokine receptor type 4 (Homo sapiens) (P61073 whole entry): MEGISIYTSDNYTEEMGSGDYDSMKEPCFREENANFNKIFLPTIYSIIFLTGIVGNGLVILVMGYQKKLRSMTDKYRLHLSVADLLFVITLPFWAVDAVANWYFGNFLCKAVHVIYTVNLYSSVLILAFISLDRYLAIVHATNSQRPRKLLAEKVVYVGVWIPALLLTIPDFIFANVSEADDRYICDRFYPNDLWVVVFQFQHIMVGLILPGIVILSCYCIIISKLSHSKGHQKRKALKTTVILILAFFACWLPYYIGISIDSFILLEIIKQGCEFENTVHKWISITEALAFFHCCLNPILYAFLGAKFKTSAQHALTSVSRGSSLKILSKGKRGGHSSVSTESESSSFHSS

EC [2] | SMILES | inhibition [1] | further results
100 nM | O=C(NCc1ccc(CNS(=O)(=O)c2ccccc2)cc1)c1ccc([N+](=O)[O-])cc1 | 55% | –
100 nM | Cc1ccc(S(=O)(=O)NCc2ccc(CNC(=O)c3ccccc3C)cc2)cc1 | < 50% | –
1 nM | Cc1ccccc1C(=O)NCc1ccc(CNS(=O)(=O)c2ccccc2)cc1 | > 90% | inhibition (Mus musculus [3]): inactive; Ratio [4]: 1000
1000 nM | Cc1cccc(C(=O)NCc2ccc(CNS(=O)(=O)c3ccccc3)cc2)c1 | – | –
> 1000 nM | Cc1ccc(S(=O)(=O)NCc2ccc(CNC(=O)c3ccccc3)cc2)cc1 | – | –
100 nM | Cc1ccc(S(=O)(=O)NCc2ccc(CNC(=O)c3cccc(Cl)c3)cc2)cc1 | > 60% | inhibition in vivo at 10 mg/kg (Mus musculus [3]): 57%
1000 nM | COc1ccc(C(=O)NCc2ccc(CNS(=O)(=O)c3ccccc3)cc2)cc1 | – | –
10 nM | Cc1ccc(S(=O)(=O)NCc2ccc(CNC(=O)c3ccc(Cl)cc3)cc2)cc1 | > 60% | inhibition in vivo at 10 mg/kg (Mus musculus [3]): 50%
10 nM | Cc1ccc(S(=O)(=O)NCc2ccc(CNC(=O)c3ccccc3Cl)cc2)cc1 | > 90% | inhibition in vivo at 10 mg/kg (Mus musculus [3]): 26%
1000 nM | O=C(NCc1ccc(CNS(=O)(=O)c2ccccc2)cc1)c1ccccc1F | – | –
1 nM | O=C(NCc1ccc(CNS(=O)(=O)c2ccccc2)cc1)c1ccccc1 | > 60% | inhibition in vivo at 10 mg/kg (Mus musculus [3]): 62%; Ratio [4]: 1000
1 nM | Cc1ccc(S(=O)(=O)NCc2ccc(CNC(=O)c3cccc(F)c3)cc2)cc1 | 55% | Ratio [4]: 1000
10 nM | Cc1ccc(S(=O)(=O)NCc2ccc(CNC(=O)c3ccncc3)cc2)cc1 | 55% | –
1 nM | COc1ccccc1C(=O)NCc1ccc(CNS(=O)(=O)c2ccccc2)cc1 | > 90% | inhibition (Mus musculus [3]): inactive; Ratio [4]: 1000
1000 nM | O=C(NCc1ccc(CNS(=O)(=O)c2ccccc2)cc1)c1cccc(Cl)c1 | – | –
> 1000 nM | Cc1ccc(S(=O)(=O)NCc2ccc(CNC(=O)c3cccnc3)cc2)cc1 | – | –

Second part, the molecule before the results:

SMILES | EC [2] | inhibition [1] | further results
COc1ccccc1C(=O)NCc1ccc(CNS(=O)(=O)c2ccc(C)cc2)cc1 | 100 nM | > 90% | inhibition (Mus musculus [3]): inactive
COc1cccc(C(=O)NCc2ccc(CNS(=O)(=O)c3ccc(C)cc3)cc2)c1 | 10 nM | > 90% | inhibition in vivo at 10 mg/kg (Mus musculus [3]): 28%
Cc1ccc(S(=O)(=O)NCc2ccc(CNC(=O)c3c(Cl)cc(Cl)cc3Cl)cc2)cc1 | 10 nM | 55% | –
O=C(NCc1ccc(CNS(=O)(=O)c2ccccc2)cc1)c1c(Cl)cc(Cl)cc1Cl | 10 nM | > 60% | inhibition (Mus musculus [3]): inactive
O=C(NCc1ccc(CNS(=O)(=O)c2ccccc2)cc1)c1ccncc1 | 10 nM | > 60% | inhibition in vivo at 10 mg/kg (Mus musculus [3]): 40%
O=C(NCc1ccc(CNS(=O)(=O)c2ccccc2)cc1)c1ccc(Cl)cc1 | 100 nM | < 50% | –
O=C(NCc1ccc(CNS(=O)(=O)c2ccccc2)cc1)c1cccnc1 | 10 nM | > 60% | inhibition in vivo at 10 mg/kg (Mus musculus [3]): 53%
COc1cccc(C(=O)NCc2ccc(CNS(=O)(=O)c3ccccc3)cc2)c1 | > 1000 nM | – | –
Cc1ccc(S(=O)(=O)NCc2ccc(CNC(=O)c3ccc([N+](=O)[O-])cc3)cc2)cc1 | 10 nM | 55% | –
O=C(NCc1ccc(CNS(=O)(=O)c2ccccc2)cc1)c1cccc(F)c1 | 100 nM | > 60% | –
Cc1ccc(C(=O)NCc2ccc(CNS(=O)(=O)c3ccccc3)cc2)cc1 | 100 nM | < 50% | –
O=C(NCc1ccc(CNS(=O)(=O)c2ccccc2)cc1)c1ccc(F)cc1 | 100 nM | > 60% | inhibition in vivo at 10 mg/kg (Mus musculus [3]): 40%
Cc1ccc(S(=O)(=O)NCc2ccc(CNC(=O)c3ccccc3F)cc2)cc1 | 1000 nM | – | –
Cc1ccc(S(=O)(=O)NCc2ccc(CNC(=O)c3cccc(C)c3)cc2)cc1 | 1000 nM | – | –
O=C(NCc1ccc(CNS(=O)(=O)c2ccccc2)cc1)c1ccccc1Cl | 10 nM | > 60% | inhibition (Mus musculus [3]): inactive
Cc1ccc(S(=O)(=O)NCc2ccc(CNC(=O)c3ccc(F)cc3)cc2)cc1 | 1 nM | > 60% | selectivity ratio (CXCR4 [5]): 1000; Stability [6]: Stable; remaining at 20 min [7]: 65%; Activity (MCF-10A): Non-Toxic; inhibition (Mus musculus [8]): Active; inhibition in vivo at 10 mg/kg (Mus musculus [3]): 75%; inhibition (Mus musculus [9]): Active; inhibition (Mus musculus [10]): Active; remaining at 50 min [11]: 45%; selectivity ratio (CXCR4 [12]): 1000; inhibition [13]: Dose-dependent effect; Activity (MDA-MB-231): Non-Toxic; remaining at 5 min [14]: 100%; half-life [15]: 40 min
Cc1ccc(C(=O)NCc2ccc(CNS(=O)(=O)c3ccc(C)cc3)cc2)cc1 | 1000 nM | – | –
COc1ccc(C(=O)NCc2ccc(CNS(=O)(=O)c3ccc(C)cc3)cc2)cc1 | 100 nM | 55% | –
